Earlier results in patent publication US8337481B2, “Method for treating otitis externa” (priority 2005, dated 2012).

| SMILES | Biological Half Life |
| --- | --- |
| C[C@H]1C[C@@H]2[C@H]([C@@H](O)C[C@@]3(C)[C@H]2CC[C@]3(O)C(=O)CO)[C@@]2(C)C=CC(=O)C=C12 [Methyl-prednisolone, methylprednisolone] | 18-36 Hours |
| C[C@]12CCC(=O)C=C1CC[C@@H]1[C@@H]2[C@@H](O)C[C@@]2(C)[C@H]1CC[C@]2(O)C(=O)CO [hydrocortisone] | 8-12 Hours |
| C[C@]12C=CC(=O)C=C1CC[C@@H]1[C@@H]2[C@@H](O)C[C@@]2(C)[C@H]1CC[C@]2(O)C(=O)CO [prednisolone] | 18-36 Hours |
| C[C@]12C=CC(=O)C=C1CC[C@H]1[C@@H]3C[C@@H](O)[C@](O)(C(=O)CO)[C@@]3(C)C[C@H](O)[C@@]12F [triamcinolone] | 18-36 Hours |
